# From ChEMBL document CHEMBL5335843, “Application of tobramycin benzyl ether as an antibiotic adjuvant capable of sensitizing multidrug-resistant Gram-negative bacteria to rifampicin” (2024)
# Calls of active or inactive are those of the source. The rule behind the calls is not given here.
# Experiments:
# Pseudomonas aeruginosa [1] = experiment: Antibiotic adjuvant activity against multi-drug resistant Pseudomonas aeruginosa clinical isolate PA259 assessed as fractional inhibitory concentration index incubated for 18 hrs in presence of doxycycline by two fold broth microdilution checkerboard assay; assay type: functional
# Escherichia coli [2] = experiment: Antibiotic adjuvant activity against multi-drug resistant Escherichia coli clinical isolate 107115 assessed as rifampicin MIC incubated for 18 hrs in presence of Rifampicin by two fold broth microdilution checkerboard assay; assay type: functional
# Pseudomonas aeruginosa [3] = experiment: Antibiotic adjuvant activity against multi-drug resistant Pseudomonas aeruginosa clinical isolate PA259 assessed as fold potentiation incubated for 18 hrs in presence of Rifampicin by two fold broth microdilution checkerboard assay; assay type: functional
# Acinetobacter baumannii [4] = experiment: Antibiotic adjuvant activity against multi-drug resistant Acinetobacter baumannii clinical isolate 92247 assessed as fractional inhibitory concentration index incubated for 18 hrs in presence of Rifampicin by two fold broth microdilution checkerboard assay; assay type: functional
# Pseudomonas aeruginosa [5] = experiment: Antibiotic adjuvant activity against multi-drug resistant Pseudomonas aeruginosa clinical isolate 114228 assessed as fractional inhibitory concentration index incubated for 18 hrs in presence of Rifampicin by two fold broth microdilution checkerboard assay; assay type: functional
# Pseudomonas aeruginosa [6] = experiment: Antibiotic adjuvant activity against multi-drug resistant Pseudomonas aeruginosa clinical isolate 101243 assessed as inhibition of bacterial growth incubated for 18 hrs in presence of Rifampicin by two fold broth microdilution checkerboard assay; assay type: functional
# Acinetobacter baumannii [7] = experiment: Antibiotic adjuvant activity against multi-drug resistant Acinetobacter baumannii clinical isolate AB031 assessed as rifampicin MIC incubated for 18 hrs in presence of Rifampicin by two fold broth microdilution checkerboard assay; assay type: functional
# Pseudomonas aeruginosa [8] = experiment: Antibiotic adjuvant activity against multi-drug resistant Pseudomonas aeruginosa clinical isolate 101243 assessed as rifampicin MIC incubated for 18 hrs in presence of Rifampicin by two fold broth microdilution checkerboard assay; assay type: functional
# Escherichia coli [9] = experiment: Antibiotic adjuvant activity against multi-drug resistant Escherichia coli clinical isolate 94474 assessed as fractional inhibitory concentration index incubated for 18 hrs in presence of Rifampicin by two fold broth microdilution checkerboard assay; assay type: functional
# Acinetobacter baumannii [10] = experiment: Antibiotic adjuvant activity against Acinetobacter baumannii ATCC 17978 assessed as fold potentiation incubated for 18 hrs in presence of rifampicin and CAMHB Na+ media by two fold broth microdilution checkerboard assay; assay type: functional
# Escherichia coli [11] = experiment: Antibiotic adjuvant activity against multi-drug resistant Escherichia coli clinical isolate EC107115 assessed as fractional inhibitory concentration index incubated for 18 hrs in presence of doxycycline by two fold broth microdilution checkerboard assay; assay type: functional
# Pseudomonas aeruginosa [12] = experiment: Antibacterial activity against multi-drug resistant Pseudomonas aeruginosa clinical isolate PA259 assessed as inhibition of bacterial growth incubated for 18 hrs by two fold broth microdilution assay; assay type: functional
# Pseudomonas aeruginosa [13] = experiment: Antibiotic adjuvant activity against multi-drug resistant Pseudomonas aeruginosa clinical isolate PA262 assessed as fold potentiation incubated for 18 hrs in presence of Rifampicin by two fold broth microdilution checkerboard assay; assay type: functional
# Acinetobacter baumannii [14] = experiment: Antibiotic adjuvant activity against multi-drug resistant Acinetobacter baumannii clinical isolate AB027 assessed as fractional inhibitory concentration index incubated for 18 hrs in presence of Rifampicin by two fold broth microdilution checkerboard assay; assay type: functional
# Acinetobacter baumannii [15] = experiment: Antibiotic adjuvant activity against Acinetobacter baumannii ATCC 17978 assessed as novobiocin MIC incubated for 18 hrs in presence of novobiocin by two fold broth microdilution checkerboard assay; assay type: functional
# Pseudomonas aeruginosa [16] = experiment: Antibiotic adjuvant activity against multi-drug resistant Pseudomonas aeruginosa clinical isolate PA262 assessed as fold potentiation incubated for 18 hrs in presence of minocycline by two fold broth microdilution checkerboard assay; assay type: functional
# Escherichia coli [17] = experiment: Antibacterial activity against Escherichia coli ATCC 25922 assessed as inhibition of bacterial growth incubated for 18 hrs by two fold broth microdilution assay; assay type: functional
# Escherichia coli [18] = experiment: Antibiotic adjuvant activity against multi-drug resistant Escherichia coli clinical isolate EC107115 assessed as doxycycline MIC incubated for 18 hrs in presence of doxycycline by two fold broth microdilution checkerboard assay; assay type: functional
# Acinetobacter baumannii [19] = experiment: Antibiotic adjuvant activity against Acinetobacter baumannii ATCC 17978 assessed as fold potentiation incubated for 18 hrs in presence of rifampicin and CAMHB Mg2+ media by two fold broth microdilution checkerboard assay; assay type: functional
# Enterococcus faecium = experiment: Antibiotic adjuvant activity against Enterococcus faecium 128149 assessed as fold potentiation incubated for 18 hrs in presence of rifampicin by two fold broth microdilution checkerboard assay; assay type: functional
# Pseudomonas aeruginosa [20] = experiment: Antibiotic adjuvant activity against multi-drug resistant Pseudomonas aeruginosa clinical isolate PA114228 assessed as inhibition of bacterial growth incubated for 18 hrs in presence of minocycline by two fold broth microdilution checkerboard assay; assay type: functional
# Escherichia coli [21] = experiment: Antibiotic adjuvant activity against Escherichia coli ATCC 25922 assessed as fold potentiation incubated for 18 hrs in presence of vancomycin by two fold broth microdilution checkerboard assay; assay type: functional
# Escherichia coli [22] = experiment: Antibiotic adjuvant activity against multi-drug resistant Escherichia coli clinical isolate EC107115 assessed as fold potentiation incubated for 18 hrs in presence of doxycycline by two fold broth microdilution checkerboard assay; assay type: functional
# Acinetobacter baumannii [23] = experiment: Antibiotic adjuvant activity against Acinetobacter baumannii ATCC 17978 at 8 to 11 ug/ml incubated for 18 hrs in presence of rifampicin and 10 % FBS media by two fold broth microdilution checkerboard assay; assay type: functional, organism-based; conditions: dose 8-11 µg/ml
# Escherichia coli [24] = experiment: Antibiotic adjuvant activity against multi-drug resistant Escherichia coli clinical isolate 94474 assessed as inhibition of bacterial growth incubated for 18 hrs in presence of Rifampicin by two fold broth microdilution checkerboard assay; assay type: functional
# Escherichia coli [25] = experiment: Antibiotic adjuvant activity against Escherichia coli ATCC 25922 assessed as minocycline MIC incubated for 18 hrs in presence of minocycline by two fold broth microdilution checkerboard assay; assay type: functional
# Pseudomonas aeruginosa [26] = experiment: Antibacterial activity against multi-drug resistant Pseudomonas aeruginosa clinical isolate PA262 assessed as inhibition of bacterial growth incubated for 18 hrs by two fold broth microdilution assay; assay type: functional
# Pseudomonas aeruginosa [27] = experiment: Antibiotic adjuvant activity against Pseudomonas aeruginosa PAO1 assessed as fold potentiation incubated for 18 hrs in presence of Rifampicin by two fold broth microdilution checkerboard assay; assay type: functional
# Acinetobacter baumannii [28] = experiment: Antibacterial activity against multi-drug resistant Acinetobacter baumannii clinical isolate 110193 assessed as inhibition of bacterial growth incubated for 18 hrs by two fold broth microdilution assay; assay type: functional
compound,measurement,setting,value
Cl.NC[C@H]1O[C@H](O[C@H]2[C@H](OCc3ccccc3)[C@@H](O[C@H]3O[C@H](COCc4ccccc4)[C@@H](OCc4ccccc4)[C@H](N)[C@H]3OCc3ccccc3)[C@H](N)C[C@@H]2N)[C@H](N)C[C@@H]1OCc1ccccc1,fractional inhibitory concentration index (FICI),Pseudomonas aeruginosa [1],1.063
same,MIC,Escherichia coli [2],0.125 µg/mL
same,fold change (FC),Pseudomonas aeruginosa [3],1
same,fractional inhibitory concentration index (FICI),Acinetobacter baumannii [4],0.252
same,fractional inhibitory concentration index (FICI),Pseudomonas aeruginosa [5],1.125
same,MIC,Pseudomonas aeruginosa [6],8 µg/mL
same,MIC,Acinetobacter baumannii [7],0.002 µg/mL
same,MIC,Pseudomonas aeruginosa [8],0.004 µg/mL
same,fractional inhibitory concentration index (FICI),Escherichia coli [9],0.129
same,fold change (FC),Acinetobacter baumannii [10],256
same,fractional inhibitory concentration index (FICI),Escherichia coli [11],0.313
same,MIC,Pseudomonas aeruginosa [12],128 µg/mL
same,fold change (FC),Pseudomonas aeruginosa [13],1
same,fractional inhibitory concentration index (FICI),Acinetobacter baumannii [14],0.125
same,MIC,Acinetobacter baumannii [15],0.5 µg/mL
same,fold change (FC),Pseudomonas aeruginosa [16],1
same,MIC,Escherichia coli [17],32 µg/mL
same,MIC,Escherichia coli [18],32 µg/mL
same,fold change (FC),Acinetobacter baumannii [19],16
same,fold change (FC),Enterococcus faecium,1
same,MIC,Pseudomonas aeruginosa [20],8 µg/mL
same,fold change (FC),Escherichia coli [21],4
same,fold change (FC),Escherichia coli [22],4
same,Activity,Acinetobacter baumannii [23],inactive
same,MIC,Escherichia coli [24],4 µg/mL
same,MIC,Escherichia coli [25],8 µg/mL
same,MIC,Pseudomonas aeruginosa [26],128 µg/mL
same,fold change (FC),Pseudomonas aeruginosa [27],8
same,MIC,Acinetobacter baumannii [28],64 µg/mL
